Data on 30 compounds can be found in US11839613B2, “Pyrimidine derivatives as PGE2 receptor modulators” (IDORSIA PHARMACEUTICALS LTD, priority 2017, dated 2023).

For one assay, the target named is PTGER2 (EP2) (Homo sapiens (Human), UniProt P43116). As to the kind of experiment: hEP2 b-arrestin assay (PathHunter HEK 293 PTGER2 b-arrestin cells). The class given is cell-based. The settings on record: antagonistic activity, beta-arrestin assay; read-out: hEP2 b-arr IC50. The procedure: Plate is pre-incubated 15 minutes at 37° C. Then five microliters of PGE2 (final conc. 5 μM) are transferred into the assay plate. Plate is incubated 120 minutes at 37° C.
PTGER2 (EP2), sequence (P43116 whole entry): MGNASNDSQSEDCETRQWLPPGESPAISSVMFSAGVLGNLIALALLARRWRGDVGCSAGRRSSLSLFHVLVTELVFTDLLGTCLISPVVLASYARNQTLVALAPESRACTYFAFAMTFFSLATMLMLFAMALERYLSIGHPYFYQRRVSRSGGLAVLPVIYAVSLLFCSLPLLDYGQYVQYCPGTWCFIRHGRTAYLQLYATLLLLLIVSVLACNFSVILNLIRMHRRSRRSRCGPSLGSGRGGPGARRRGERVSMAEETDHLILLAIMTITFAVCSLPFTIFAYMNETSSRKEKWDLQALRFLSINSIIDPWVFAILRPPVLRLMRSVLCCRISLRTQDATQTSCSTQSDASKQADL
(each concentration is measured in duplicate)

The target in another assay is PTGER4 (EP4) (Homo sapiens (Human), UniProt P35408). As to the kind of experiment: cell-based.
PTGER4 (EP4), sequence (P35408 whole entry): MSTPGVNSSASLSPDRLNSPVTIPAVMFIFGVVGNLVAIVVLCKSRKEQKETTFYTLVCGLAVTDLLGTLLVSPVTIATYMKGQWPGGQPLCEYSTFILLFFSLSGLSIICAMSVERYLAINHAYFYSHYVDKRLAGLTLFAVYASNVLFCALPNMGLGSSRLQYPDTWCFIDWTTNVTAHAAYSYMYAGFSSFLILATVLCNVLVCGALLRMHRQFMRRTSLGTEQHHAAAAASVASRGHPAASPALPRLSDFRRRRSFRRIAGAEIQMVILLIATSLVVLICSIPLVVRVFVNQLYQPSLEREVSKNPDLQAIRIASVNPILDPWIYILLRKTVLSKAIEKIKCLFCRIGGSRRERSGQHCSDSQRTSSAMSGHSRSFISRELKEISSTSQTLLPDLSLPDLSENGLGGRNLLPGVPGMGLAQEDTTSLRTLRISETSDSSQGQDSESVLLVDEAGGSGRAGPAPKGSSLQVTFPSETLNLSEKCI

For orientation: IC50 means the concentration that inhibits the measured activity by half. Turning to `Cc1cc(-c2cc(NCCc3cc(F)c4sccc4c3)ncn2)ccc1CC(=O)O` [Example 544, (4-{6-[2-(7-Fluoro-benzo[b]thiophen-5-yl)-ethylamino]-pyrimidin-4-yl}-2-methyl-phenyl)-acetic acid], the figures for the IC50 at PTGER2 (EP2) and against PTGER4 (EP4) were 0.851 µM and 0.452 µM, respectively.
On to `COc1cc2c(c(C)c1CCNc1cc(-c3ccc(CC(=O)O)c(OC(C)C)c3)ncn1)OCCO2` [Example 426, (2-Isopropoxy-4-{6-[2-(7-methoxy-5-methyl-2,3-dihydro-benzo[1,4]dioxin-6-yl)-ethylamino]-pyrimidin-4-yl}-phenyl)-acetic acid], for which the values for the IC50 at PTGER2 (EP2) and at PTGER4 (EP4) were 0.009 µM and 0.046 µM, respectively.
With `O=C(O)c1ccc(-c2cc(NCCc3cc(F)c4sccc4c3)ncn2)cc1OC1CCC1` [Example 534, 2-Cyclobutoxy-4-{6-[2-(7-fluoro-benzo[b]thiophen-5-yl)-ethylamino]-pyrimidin-4-yl}-benzoic acid], the 50% inhibitory concentration (IC50) on PTGER2 (EP2) came out at 0.332 µM; against PTGER4 (EP4), 0.07 µM.
For the compound `CCc1cc(-c2cc(NCCc3cc(F)c4sccc4c3)ncn2)cc(C)c1CC(=O)O` [Example 542, (2-Ethyl-4-{6-[2-(7-fluoro-benzo[b]thiophen-5-yl)-ethylamino]-pyrimidin-4-yl}-6-methyl-phenyl)-acetic acid], the IC50 worked out at 0.609 µM at PTGER2 (EP2) and 0.091 µM on PTGER4 (EP4).
`CCOc1cc2c(cc1CCNc1cc(-c3ccc(CC(=O)O)c(OC(F)F)c3)ncn1)OCCO2` [Example 510, (2-Difluoromethoxy-4-{6-[2-(7-ethoxy-2,3-dihydro-benzo[1,4]dioxin-6-yl)-ethylamino]-pyrimidin-4-yl}-phenyl)-acetic acid]: the IC50 on PTGER2 (EP2) was found to be 0.045 µM; against PTGER4 (EP4) it was 0.194 µM.
As to `CCCc1cc(-c2cc(NCCc3ccc4c(c3)OCCO4)ncn2)ccc1CC(=O)O` [Example 527, (4-{6-[2-(2,3-Dihydro-benzo[1,4]dioxin-6-yl)-ethylamino]-pyrimidin-4-yl}-2-propyl-phenyl)-acetic acid], the IC50 on PTGER2 (EP2) amounted to 0.892 µM; on PTGER4 (EP4), 0.337 µM.
Take `CCOc1cc(-c2cc(NCCc3cc(F)c4sccc4c3)ncn2)sc1CCC(=O)O` [Example 535, 3-(3-Ethoxy-5-{6-[2-(7-fluoro-benzo[b]thiophen-5-yl)-ethylamino]-pyrimidin-4-yl}-thiophen-2-yl)-propionic acid]: the IC50 at PTGER2 (EP2) was 0.871 µM; against PTGER4 (EP4) it was 0.042 µM.
Turning to `Cc1cc(-c2cc(NCCc3cc(F)c4sccc4c3)ncn2)cc(Cl)c1CC(=O)O` [Example 546, (2-Chloro-4-{6-[2-(7-fluoro-benzo[b]thiophen-5-yl)-ethylamino]-pyrimidin-4-yl}-6-methyl-phenyl)-acetic acid], the IC50 on PTGER2 (EP2) came to 0.98 µM; against PTGER4 (EP4), 0.166 µM.
On to `CC(C)Cc1cc(-c2cc(NCCc3ccc4sccc4c3F)ncn2)ccc1C(=O)O` [Example 413, 4-{6-[2-(4-Fluoro-benzo[b]thiophen-5-yl)-ethylamino]-pyrimidin-4-yl}-2-isobutyl-benzoic acid], for which the half-maximal inhibitory concentration (IC50) was determined as 0.062 µM at PTGER2 (EP2) and 0.041 µM at PTGER4 (EP4).
Turning to `CCc1cc(-c2cc(NCCc3ccc4ccccc4c3C)ncn2)ccc1C(=O)O` [Example 517, 2-Ethyl-4-{6-[2-(1-methyl-naphthalen-2-yl)-ethylamino]-pyrimidin-4-yl}-benzoic acid], the IC50 at PTGER2 (EP2) was determined as 0.108 µM; on PTGER4 (EP4) it was 0.288 µM.
`CCc1cc(-c2cc(NCCc3c(OC)cc4ccccc4c3C)ncn2)ccc1CC(=O)O` [Example 445, (2-Ethyl-4-{6-[2-(3-methoxy-1-methyl-naphthalen-2-yl)-ethylamino]-pyrimidin-4-yl}-phenyl)-acetic acid]: the IC50 on PTGER2 (EP2) was found to be 0.088 µM; against PTGER4 (EP4), 0.038 µM.
As to `CCOc1cc(-c2cc(NCCc3cc4c(cc3OC)OCCO4)ncn2)cc(F)c1CC(=O)O` [Example 373, (2-Ethoxy-6-fluoro-4-{6-[2-(7-methoxy-2,3-dihydro-benzo[1,4]dioxin-6-yl)-ethylamino]-pyrimidin-4-yl}-phenyl)-acetic acid], the values for the half-inhibitory concentration (IC50) at PTGER2 (EP2) and at PTGER4 (EP4) were 0.257 µM and 0.118 µM, respectively.
With `CCOc1cc(-c2cc(NCCc3ccc4scc(Cl)c4c3)ncn2)ccc1C(=O)O` [Example 490, 4-{6-[2-(3-Chloro-benzo[b]thiophen-5-yl)-ethylamino]-pyrimidin-4-yl}-2-ethoxy-benzoic acid], the IC50 on PTGER2 (EP2) was 0.09 µM; on PTGER4 (EP4), 0.144 µM.
The corresponding values for `CCCc1cc(-c2cc(NCCc3cc4ccsc4cc3OC)ncn2)ccc1C(=O)O` [Example 377, 4-{6-[2-(6-Methoxy-benzo[b]thiophen-5-yl)-ethylamino]-pyrimidin-4-yl}-2-propyl-benzoic acid] are 0.008 µM and 0.068 µM.
Take `COc1c(CCNc2cc(-c3ccc(C(=O)O)c(CC(C)C)c3)ncn2)cc2ccsc2c1F` [Example 415, 4-{6-[2-(7-Fluoro-6-methoxy-benzo[b]thiophen-5-yl)-ethylamino]-pyrimidin-4-yl}-2-isobutyl-benzoic acid]: the IC50 on PTGER2 (EP2) turned out to be 0.063 µM; at PTGER4 (EP4), 0.052 µM.
On to `CCCc1cc(-c2cc(NCCc3cc4c(cc3F)OCCO4)ncn2)ccc1CC(=O)O` [Example 528, (4-{6-[2-(7-Fluoro-2,3-dihydro-benzo[1,4]dioxin-6-yl)-ethylamino]-pyrimidin-4-yl}-2-propyl-phenyl)-acetic acid], for which the IC50 came out at 0.513 µM on PTGER2 (EP2) and 0.198 µM at PTGER4 (EP4).
For `CCCc1cc(-c2cc(NCCc3cc4c(cc3OC)OCCO4)ncn2)ccc1C(=O)O` [Example 379, 4-{6-[2-(7-Methoxy-2,3-dihydro-benzo[1,4]dioxin-6-yl)-ethylamino]-pyrimidin-4-yl}-2-propyl-benzoic acid], the IC50 on PTGER2 (EP2) is 0.051 µM; against PTGER4 (EP4), 0.155 µM.
In the case of `O=C(O)c1n[nH]c2cc(-c3cc(NCCc4cc(F)c5sccc5c4)ncn3)ccc12` [Example 562, 6-{6-[2-(7-Fluoro-benzo[b]thiophen-5-yl)-ethylamino]-pyrimidin-4-yl}-1H-indazole-3-carboxylic acid], the IC50 at PTGER2 (EP2) worked out at 0.803 µM; on PTGER4 (EP4), 0.689 µM.
For the compound `COc1c(CCNc2cc(-c3ccc(C(=O)O)c(SC)c3)ncn2)cc2ccsc2c1F` [Example 405, 4-{6-[2-(7-Fluoro-6-methoxy-benzo[b]thiophen-5-yl)-ethylamino]-pyrimidin-4-yl}-2-methylsulfanyl-benzoic acid], the concentration for half-maximal inhibition (IC50) was 0.009 µM at PTGER2 (EP2) and 0.079 µM on PTGER4 (EP4).
Take `CCOc1cc(-c2cc(NCCc3ccc4ccsc4c3C)ncn2)ccc1CC(=O)O` [Example 472, (2-Ethoxy-4-{6-[2-(7-methyl-benzo[b]thiophen-6-yl)-ethylamino]-pyrimidin-4-yl}-phenyl)-acetic acid]: the IC50 turned out to be 0.68 µM on PTGER2 (EP2) and 0.246 µM against PTGER4 (EP4).
Take `CCOc1cc2c(cc1CCNc1cc(-c3ccc(C(=O)O)c(CC(C)C)c3)ncn1)OCCO2` [Example 417, 4-{6-[2-(7-Ethoxy-2,3-dihydro-benzo[1,4]dioxin-6-yl)-ethylamino]-pyrimidin-4-yl}-2-isobutyl-benzoic acid]: the IC50 was determined as 0.038 µM on PTGER2 (EP2) and 0.174 µM against PTGER4 (EP4).
Turning to `CCCc1cc(-c2cc(NCCc3cc4c(cc3OC)OCCO4)ncn2)ccc1CC(=O)O` [Example 387, (4-{6-[2-(7-Methoxy-2,3-dihydro-benzo[1,4]dioxin-6-yl)-ethylamino]-pyrimidin-4-yl}-2-propyl-phenyl)-acetic acid], the values for the IC50 on PTGER2 (EP2) and at PTGER4 (EP4) were 0.061 µM and 0.049 µM, respectively.
As for `COc1cc(-c2cc(NCCc3ccc4sccc4c3F)ncn2)ccc1OCCC(=O)O` [Example 437, 3-(4-{6-[2-(4-Fluoro-benzo[b]thiophen-5-yl)-ethylamino]-pyrimidin-4-yl}-2-methoxy-phenoxy)-propionic acid], the results for the IC50 at PTGER2 (EP2) and against PTGER4 (EP4) were 0.104 µM and 0.041 µM, respectively.
As for `CCOc1cc(-c2cc(NCCc3cc(C)c4sccc4c3)ncn2)sc1C(=O)O` [Example 391, 3-Ethoxy-5-{6-[2-(7-methyl-benzo[b]thiophen-5-yl)-ethylamino]-pyrimidin-4-yl}-thiophene-2-carboxylic acid], the IC50 worked out at 0.131 µM at PTGER2 (EP2) and 0.019 µM against PTGER4 (EP4).
As for `O=C(O)C1Cc2cc(-c3cc(NCCc4ccc5sccc5c4)ncn3)ccc2O1` (racemic) [Example 474, rac-5-[6-(2-Benzo[b]thiophen-5-yl-ethylamino)-pyrimidin-4-yl]-2,3-dihydro-benzofuran-2-carboxylic acid], the IC50 turned out to be 0.272 µM on PTGER2 (EP2) and 0.914 µM at PTGER4 (EP4).
With `O=C(O)c1ccc(-c2cc(NCCc3ccc4sccc4c3F)ncn2)cc1OC1CCC1` [Example 366, 2-Cyclobutoxy-4-{6-[2-(4-fluoro-benzo[b]thiophen-5-yl)-ethylamino]-pyrimidin-4-yl}-benzoic acid], the IC50 was determined as 0.084 µM on PTGER2 (EP2) and 0.119 µM against PTGER4 (EP4).
The corresponding values for `CSc1cc(-c2cc(NCCc3cc(F)c4sccc4c3)ncn2)ccc1C(=O)O` [Example 364, 4-{6-[2-(7-Fluoro-benzo[b]thiophen-5-yl)-ethylamino]-pyrimidin-4-yl}-2-methylsulfanyl-benzoic acid] are 0.151 µM and 0.052 µM.
`CCOc1cc(-c2cc(NCCc3cc4ccsc4c(F)c3OC)ncn2)ccc1C(=O)O` [Example 404, 2-Ethoxy-4-{6-[2-(7-fluoro-6-methoxy-benzo[b]thiophen-5-yl)-ethylamino]-pyrimidin-4-yl}-benzoic acid]: the IC50 is 0.02 µM on PTGER2 (EP2) and 0.08 µM on PTGER4 (EP4).
As for `COc1cc(-c2cc(NCCc3c(OC)cc4c(c3C)OCCO4)ncn2)ccc1CC(=O)O` [Example 434, (2-Methoxy-4-{6-[2-(7-methoxy-5-methyl-2,3-dihydro-benzo[1,4]dioxin-6-yl)-ethylamino]-pyrimidin-4-yl}-phenyl)-acetic acid], the figures for the IC50 at PTGER2 (EP2) and against PTGER4 (EP4) were 0.026 µM and 0.058 µM, respectively.
The corresponding values for `O=C(O)c1ccc(-c2cc(NCCc3cc(F)c4sccc4c3)ncn2)cc1O` [Example 563, 4-{6-[2-(7-Fluoro-benzo[b]thiophen-5-yl)-ethylamino]-pyrimidin-4-yl}-2-hydroxy-benzoic acid] are 0.985 µM and 0.582 µM.
